Measurements from patent US20110306636A1, “OXAZOLE PYRIDINE DERIVATIVES USEFUL AS S1P1 RECEPTOR AGONISTS” (Merck Serono SA, priority 2009, published 2011).
Where a name gives a salt, the structure may show the parent alone. Read-outs that look alike come from different tables or passages of the source.

Legend:
S1P1 = S1P1 (Homo sapiens, UniProt P21453); assay: Receptor binding assay, [33P]sphingosine 1-phosphate competition, S1P1
Protocol: (§1) Membranes Preparation: Membranes were prepared from CHO cells expressing S1P1 or S1P3 for use in ligand and 35S-GTPγS binding studies. Cells were suspended in 50 mM TRIS, pH 7.4, 2 mM EDTA, 250 mM Sucrose (buffer A) and 1× Complete protease inhibitor cocktail (Roche), and disrupted at 4° C. by N2 decompression using a cell disruption bomb (Parr Instrument). Following centrifugation at 1000 RPM for 10 min at 4° C., the supernatant was diluted (2×) in buffer A and centrifuged again at 19000 RPM for 75 min at 4° C. The pellet was then suspended in 10 mM HEPES, pH 7.4, 1 mM EDTA, 250 mM Sucrose (Buffer B), and 1× Complete EDTA-free protease inhibitor cocktail and homogenized using a potter. Membranes were flash frozen in liquid N2 and stored at −80° C.
(§2) Receptor binding assay: [33P]sphingosine 1-phosphate (3000 Ci/mmol; American Radiolabeled Chemicals, Inc.) was added to test compounds in 20% DMSO by competition. Membranes and WGA SPA beads (GE Healthcare) were added to give a final volume of 100 μl in 96-well plates or 50 μl in 384-well plates with assay concentrations of 30 pM or 15 pM [33P]sphingosine 1-phosphate (respectively for S1P1 or S1P3), 50 mM HEPES, pH 7.5, 5 mM MgCl2, 100 mM NaCl, 0.4% fatty acid-free BSA, 1-5 μg/well of proteins in 96-well plates vs 0.6-1 μg/well of proteins in 384-well plates and 100 μg/well of WGA SPA beads in 96-well plates vs 75 μg/well of WGA SPA beads in 384-well plates. Binding was performed for 60 min at RT on a shaker and bound radioactivity was measured on a PerkinElmer 1450 MicroBeta counter. Triplicate samples were averaged and normalized as purcentage of inhibition relative to total binding (only DMSO in well) and non specific binding (1000-fold excess of unlabeled S1P). Binding data were analyzed using the GraphPad Prism program or Genedata software.

[1] = molecular target: T1, human S1P1 Receptor fused to the green fluorescent protein (EGFP) (Homo sapiens, UniProt P21453); assay: Internalization of S1P1 in S1P1-U2OS cells by cell imaging analysis; assay type: cell-based; details: 1 hour incubation, 384-well
T1 construct: host or cells: U2OS (human bone osteosarcoma epithelial cells), CMV promoter, geneticin selection
T1 sequence (P21453 with tags, fused parts or gaps): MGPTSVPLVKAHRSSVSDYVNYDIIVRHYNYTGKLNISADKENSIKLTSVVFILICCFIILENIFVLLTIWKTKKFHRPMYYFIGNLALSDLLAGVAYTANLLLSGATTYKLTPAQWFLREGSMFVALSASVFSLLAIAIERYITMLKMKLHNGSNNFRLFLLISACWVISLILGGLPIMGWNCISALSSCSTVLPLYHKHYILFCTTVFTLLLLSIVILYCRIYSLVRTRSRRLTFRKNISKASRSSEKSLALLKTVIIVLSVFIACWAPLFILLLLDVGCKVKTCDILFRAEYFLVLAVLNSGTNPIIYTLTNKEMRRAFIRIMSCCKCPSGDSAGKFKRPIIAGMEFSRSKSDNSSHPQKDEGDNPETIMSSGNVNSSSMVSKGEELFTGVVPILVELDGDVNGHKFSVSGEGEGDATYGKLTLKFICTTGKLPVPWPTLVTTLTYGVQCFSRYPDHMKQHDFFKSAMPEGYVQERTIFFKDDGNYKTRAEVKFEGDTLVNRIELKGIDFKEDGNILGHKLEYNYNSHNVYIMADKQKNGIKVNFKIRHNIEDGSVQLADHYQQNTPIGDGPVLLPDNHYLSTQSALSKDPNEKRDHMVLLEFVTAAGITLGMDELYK
Protocol: Cellular Functional Assays: Internalization of Sphingosine-1-Phosphate Receptor 1 (S1P1) in a Human Cell Line (U2OS) in a 384-Well Format Using a Cell Imaging Analysis.
The S1P1 internalization assay was performed in 384 well plates (Corning® 384 black with clear bottom 3712) using S1P1-U2OS cells from BioImage (C039A), a human epithelial cell line (Human Bone Osteosarcoma Epithelial Cells). These cells expressed the human S1P1 Receptor fused to the green fluorescent protein (EGFP). A standard CMV promoter (cytomegalovirus promoter) controls the expression of S1P1-EGFP and continuous expression was maintained by addition of geneticin to the culture medium.
S1P1 Receptor desensitization induced the internalization of the membrane-localized S1P1-EGFP fusion protein to endosomes, which can be monitored by cell imaging analysis.
The cells are plated in low serum medium (Dulbecco's Modified Eagle Medium (DMEM) with Glutamax-1 and high glucose, 1% Penicillin/Streptomycin, 1% Fetal Calf Serum (FCS), 0.5 mg/ml Geneticin) overnight.
The next day, S1P1-U2OS cells are incubated in 20 μl serum free medium (DMEM with Glutamax-1 and high glucose, 0.1% of fatty-acid free Bovin Serum Albumin (BSA), 10 mM, N′-2-Hydroxyethylpiperazine-N′-2 ethanesulphonic acid (HEPES) 1M) for 2 hours at 37° C./5% CO2.
The cells are then treated with 4 μl compounds/agonists (6×/3% DMSO) for a total volume of 24 μl, and plates are incubated for 1 hour at 37° C./5% CO2.
S1P1-U2OS cells are fixed with 25 μl Paraformaldehyde 8% and stained with Hoechst 33345 dye (1:1000) for 20 minutes.
They were then washed 3 times with Phosphate Buffered Saline (PBS) and plates are sealed.
The internalization of the receptor S1P1-EGFP is measured on Cellomics by calculating the “spot count per object” (“object” corresponds to nuclear and “spot” corresponds to S1P1-EGFP receptor). Internalization data were observed thanks to vHCS View and analyzed using Genedata® software.

S1P3 = S1P3 (Homo sapiens, UniProt Q99500); assay: Receptor binding assay, [33P]sphingosine 1-phosphate competition, S1P3
Sequence of S1P3 (Q99500 whole entry, species assumed): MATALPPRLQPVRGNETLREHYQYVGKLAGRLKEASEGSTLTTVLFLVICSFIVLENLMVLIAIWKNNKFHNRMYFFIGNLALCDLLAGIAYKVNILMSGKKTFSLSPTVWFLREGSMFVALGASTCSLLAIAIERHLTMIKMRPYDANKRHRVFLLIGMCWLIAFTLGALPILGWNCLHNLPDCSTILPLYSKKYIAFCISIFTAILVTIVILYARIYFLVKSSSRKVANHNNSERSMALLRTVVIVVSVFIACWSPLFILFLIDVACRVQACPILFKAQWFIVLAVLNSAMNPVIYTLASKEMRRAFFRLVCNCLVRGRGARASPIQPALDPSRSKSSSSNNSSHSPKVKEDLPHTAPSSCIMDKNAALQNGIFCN
Protocol: as §1, §2

[2] = 96 well-plate, read-out: S1P1 binding IC50 (M) (96 well-plate)
[3] = 384 well-plate, read-out: S1P1 binding IC50 (M) (384 well-plate)
[4] = 96 well-plate, read-out: S1P3 binding IC50 (M) (96 well-plate)
[5] = 384 well-plate, read-out: S1P3 binding IC50 (M) (384 well-plate)

Sequence of S1P1 (P21453 whole entry, species assumed): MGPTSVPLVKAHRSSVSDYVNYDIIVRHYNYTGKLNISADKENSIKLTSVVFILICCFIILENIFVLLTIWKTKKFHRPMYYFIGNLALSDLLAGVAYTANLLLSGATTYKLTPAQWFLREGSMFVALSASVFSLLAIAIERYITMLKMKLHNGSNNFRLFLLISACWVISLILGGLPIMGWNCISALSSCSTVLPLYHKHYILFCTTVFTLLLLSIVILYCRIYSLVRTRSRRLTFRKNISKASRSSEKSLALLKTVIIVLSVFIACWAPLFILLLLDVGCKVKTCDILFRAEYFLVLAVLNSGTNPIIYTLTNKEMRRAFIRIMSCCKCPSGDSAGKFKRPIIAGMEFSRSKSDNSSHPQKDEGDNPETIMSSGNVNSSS

COCc1cc(-c2nc(-c3cnc(N[C@H]4CCC[C@H]4C(=O)O)c(Cl)c3)no2)ccc1-c1ccccc1C (relative stereo) [Example 84, cis-2-(3-chloro-5-(5-(2-(methoxymethyl)-2′-methylbiphenyl-4-yl)-1,2,4-oxadiazol-3-yl)pyridin-2-ylamino)cyclopentanecarboxylic acid]
IC50 (S1P1; [2]): 1.35e-08 M | EC50 [1]: 427 nM

COCc1cc(-c2nc(-c3ccc(Cl)nc3)no2)ccc1-c1ccccc1C [Example 40, 2-chloro-5-{5-[2-(methoxymethyl)-2′-methylbiphenyl-4-yl]-1,2,4-oxadiazol-3-yl}pyridine]
IC50 (S1P1; [2]): 5.49e-08 M | EC50 [1]: 307 nM

COCc1cc(-c2nc(-c3ccc(NCCCO)nc3)no2)ccc1-c1ccccc1C [Example 41, 3-[(5-{5-[2-(methoxymethyl)-2′-methylbiphenyl-4-yl]-1,2,4-oxadiazol-3-yl}pyridin-2-yl)amino]propan-1-ol]
IC50 (S1P1; [2]): 6.72e-09 M | IC50 (S1P1; [3]): 1.72e-08 M | EC50 [1]: 84.2 nM

COCc1cc(-c2nc(-c3cnc(N)c(Cl)c3)no2)ccc1N1CCCCC1C (stereo not shown) [Example 42, 3-chloro-5-{5-[3-(methoxymethyl)-4-(2-methylpiperidin-1-yl)phenyl]-1,2,4-oxadiazol-3-yl}pyridin-2-amine]
IC50 (S1P1; [2]): 2.89e-09 M | EC50 [1]: 47.9 nM

CCc1ccccc1-c1ccc(-c2nc(-c3cnc(N)c(Cl)c3)no2)cc1COC [Example 43, 3-chloro-5-{5-[2′-ethyl-2-(methoxymethyl)biphenyl-4-yl]-1,2,4-oxadiazol-3-yl}pyridin-2-amine]
IC50 (S1P1; [2]): 2.44e-09 M | IC50 (S1P1; [3]): 4.1e-08 M | IC50 (S1P3; [4]): 1.12e-05 M | EC50 [1]: 33.5 nM

COCc1cc(-c2nc(-c3ccc(NCC(C)O)nc3)no2)ccc1-c1ccccc1C (stereo not shown) [Example 44, 1-[(5-{5-[2-(methoxymethyl)-2′-methylbiphenyl-4-yl]-1,2,4-oxadiazol-3-yl}pyridin-2-yl)amino]propan-2-ol]
IC50 (S1P1; [2]): 4.22e-09 M | IC50 (S1P1; [3]): 3.03e-08 M | EC50 [1]: 56 nM

COCc1cc(-c2nc(-c3ccc(NCC(O)CO)nc3)no2)ccc1-c1ccccc1C (stereo not shown) [Example 45, 3-[(5-{5-[2-(methoxymethyl)-2′-methylbiphenyl-4-yl]-1,2,4-oxadiazol-3-yl}pyridin-2-yl)amino]propane-1,2-diol, hydrochloride salt]
IC50 (S1P1; [2]): 2.88e-09 M | IC50 (S1P1; [3]): 1.4e-08 M | IC50 (S1P3; [4]): 9.31e-06 M | IC50 (S1P3; [5]): 7.94e-06 M | EC50 [1]: 22.4 nM

COCc1cc(-c2nc(-c3cnc(N)c(Cl)c3)no2)ccc1-c1ccccc1F [Example 46, 3-chloro-5-{5-[2′-fluoro-2-(methoxymethyl)biphenyl-4-yl]-1,2,4-oxadiazol-3-yl}pyridin-2-amine]
IC50 (S1P1; [2]): 3.31e-09 M | IC50 (S1P1; [3]): 4.42e-08 M | IC50 (S1P3; [4]): 7.21e-06 M | EC50 [1]: 59.3 nM

COCc1cc(-c2nc(-c3cnc(NCCC(=O)O)c(Cl)c3)no2)ccc1-c1ccccc1F [Example 48, N-(3-chloro-5-{5-[2′-fluoro-2-(methoxymethyl)biphenyl-4-yl]-1,2,4-oxadiazol-3-yl}pyridin-2-yl)-beta-alanine, hydrochloride salt]
IC50 (S1P1; [2]): 3.15e-09 M | IC50 (S1P3; [4]): 1.37e-06 M | EC50 [1]: 28.7 nM

COCc1cc(-c2nc(-c3ccc(NCCO)nc3)no2)ccc1-c1ccccc1Cl [Example 49, 2-[(5-{5-[2′-chloro-2-(methoxymethyl)biphenyl-4-yl]-1,2,4-oxadiazol-3-yl}pyridin-2-yl)amino]ethanol]
IC50 (S1P1; [2]): 3.71e-09 M | IC50 (S1P1; [3]): 2.4e-08 M | EC50 [1]: 61.5 nM

COCc1cc(-c2nc(-c3cnc(NCCC(=O)O)c(Cl)c3)no2)ccc1-c1ccccc1Cl [Example 50, N-(3-chloro-5-{5-[2′-chloro-2-(methoxymethyl)biphenyl-4-yl]-1,2,4-oxadiazol-3-yl}pyridin-2-yl)-beta-alanine, hydrochloride salt]
IC50 (S1P1; [2]): 1.58e-09 M | IC50 (S1P1; [3]): 1.98e-08 M | IC50 (S1P3; [4]): 5.82e-06 M | IC50 (S1P3; [5]): 9.45e-06 M | EC50 [1]: 17.3 nM

COCc1cc(-c2nc(-c3ccc(NCCCCO)nc3)no2)ccc1-c1ccccc1C [Example 51, 4-[(5-{5-[2-(methoxymethyl)-2′-methylbiphenyl-4-yl]-1,2,4-oxadiazol-3-yl}pyridin-2-yl)amino]butan-1-ol, hydrochloride salt]
IC50 (S1P1; [2]): 1.05e-08 M | IC50 (S1P3; [4]): 1.79e-05 M | IC50 (S1P3; [5]): 2e-05 M | EC50 [1]: 85.3 nM

Cc1ccccc1-c1ccc(-c2nc(-c3cnc(NCCC(=O)O)c(Cl)c3)no2)cc1C(F)(F)F [Example 61, N-(3-chloro-5-{5-[2′-methyl-2-(trifluoromethyl)biphenyl-4-yl]-1,2,4-oxadiazol-3-yl}pyridin-2-yl)-beta-alanine, hydrochloride salt]
IC50 (S1P1; [2]): 5.28e-09 M | IC50 (S1P1; [3]): 9.48e-09 M | EC50 [1]: 198 nM

COCc1cc(-c2nc(-c3cnc(NCCO)c(Cl)c3)no2)ccc1-c1ccccc1F [Example 62, 2-[(3-chloro-5-{5-[2′-fluoro-2-(methoxymethyl)biphenyl-4-yl]-1,2,4-oxadiazol-3-yl}pyridin-2-yl)amino]ethanol]
IC50 (S1P1; [2]): 3.1e-09 M | IC50 (S1P1; [3]): 7.54e-09 M | EC50 [1]: 90.8 nM

Cc1cc(-c2nc(-c3cnc(NCCC(=O)O)c(Cl)c3)no2)ccc1-c1ccccc1C(F)(F)F [Example 70, N-(3-chloro-5-{5-[2-methyl-2′-(trifluoromethyl)biphenyl-4-yl]-1,2,4-oxadiazol-3-yl}pyridin-2-yl)-beta-alanine, hydrochloride salt]
IC50 (S1P1; [3]): 1.72e-08 M | EC50 [1]: 93.4 nM

Cc1ccccc1-c1ccc(-c2nc(-c3cnc(NCCC(=O)O)c(Cl)c3)no2)cc1C [Example 73, N-{3-chloro-5-[5-(2,2′-dimethylbiphenyl-4-yl)-1,2,4-oxadiazol-3-yl]pyridin-2-yl}-beta-alanine, hydrochloride salt]
IC50 (S1P1; [3]): 1.47e-08 M | EC50 [1]: 173 nM

Cc1cc(-c2nc(-c3ccnc(CN(C)CC(=O)O)c3)no2)ccc1-c1ccccc1C(F)(F)F [Example 80, 2-(methyl((4-(5-(2-methyl-2′-(trifluoromethyl)biphenyl-4-yl)-1,2,4-oxadiazol-3-yl)pyridin-2-yl)methyl)amino)acetic acid]
IC50 (S1P1; [3]): 2.76e-08 M | EC50 [1]: 93.6 nM

Cc1cc(-c2nc(-c3ccc(CN(C)CC(=O)O)nc3)no2)ccc1-c1ccccc1C(F)(F)F [Example 81, 2-(methyl((5-(5-(2-methyl-2′-(trifluoromethyl)biphenyl-4-yl)-1,2,4-oxadiazol-3-yl)pyridin-2-yl)methyl)amino)acetic acid]
IC50 (S1P1; [3]): 2.5e-08 M | EC50 [1]: 170 nM

COCCCNc1ncc(-c2noc(-c3ccc(-c4ccccc4C)c(COC)c3)n2)cc1Cl [Example 82, 3-chloro-5-(5-(2-(methoxymethyl)-2′-methylbiphenyl-4-yl)-1,2,4-oxadiazol-3-yl)-N-(3-methoxypropyl)pyridin-2-amine]
IC50 (S1P1; [3]): 4.56e-08 M | EC50 [1]: 128 nM

COCc1cc(-c2nc(-c3cnc(NCCCO)c(Cl)c3)no2)ccc1-c1ccccc1C [Example 83, 3-(3-chloro-5-(5-(2-(methoxymethyl)-2′-methylbiphenyl-4-yl)-1,2,4-oxadiazol-3-yl)pyridin-2-ylamino)propan-1-ol]
IC50 (S1P1; [2]): 2.9e-09 M | EC50 [1]: 46.7 nM
